Reference: US20110218244A1, “CREATINE ß-ALANINATE: A NOVEL SALT FOR INCREASING […] PERFORMANCE” (priority 2009, published 2011)
Like-named read-outs stand apart in the source and are kept apart here.

Legend:
[1] = test system: individuals; conditions: cited from earlier work
[2] = test system: intramuscular carnosine content; conditions: after 10 week supplementation; cited from earlier work
[3] = test system: human subjects

NCCC(=O)N[C@@H](Cc1cnc[nH]1)C(=O)O [carnosine, β-alanyl-L-histidine]
paraesthesia symptoms ([1]; greater quantities, ingested as dipeptides in meat): do not cause the same symptoms

NCCC(=O)O [β-alanine, 3-Aminopropanoic acid]
amount above which ingestion causes paraesthesia ([1]; in solution or as powder in gelatin capsules): above 10 mg per kg body weight | time at which paraesthesia begins after oral administration ([1]; oral): about 20 minutes | increase in intramuscular carnosine content, average [2]: 80%

anserine
paraesthesia symptoms ([1]; in vivo): do not cause the same symptoms

creatine β-alaninate
more β-alanine administrable before eliciting symptoms of paraesthesia, compared with β-alanine alone ([3]; administered as creatine β-alaninate): roughly 100% | single dose administered before the onset of parasthesia was noted ([3]; oral, gelatin capsules, human subjects): up to 55.00 mg/kg | equivalent β-alanine dose before the onset of parasthesia ([3]; salt mass consists of about 40.45% β-alanine): about 22.25 mg/kg
